The source made the active and inactive calls. The rule behind the calls is not given here.
Assays:
Mus musculus [1] = assay: Analgesic activity in Kunming mouse at 8.94 umol/kg, sc pre-treated with 1 mg/kg, sc peripherally restricted opioid receptor antagonist naloxone methiodide by radiant heat tail flick test; type: functional, organism-based; settings: dose 8.94 µmol/kg
Mus musculus [2] = assay: Analgesic activity in Kunming mouse at 8.94 umol/kg, sc pre-treated with 1 mg/kg, sc opioid receptor antagonist naloxone by radiant heat tail flick test; type: functional, organism-based; settings: dose 8.94 µmol/kg
Mus musculus [3] = assay: Analgesic activity in Kunming mouse at 2.68 umol/kg, sc pre-treated with 1 mg/kg, sc opioid receptor antagonist naloxone by radiant heat tail flick test; type: functional, organism-based; settings: dose 2.68 µmol/kg
[4] = target: T1, Delta-type opioid receptor (Homo sapiens, UniProt P41143); assay: Agonist activity at delta opioid receptor (unknown origin) expressed in HEK293-A cells assessed as inhibition of forskolin-stimulated cAMP accumulation incubated for 30 mins by competition PKA binding assay; type: functional, cell-based
Mus musculus [5] = assay: Analgesic activity in Kunming mouse at 8.94 umol/kg, sc pre-treated with 5 nmol, icv peripherally restricted opioid receptor antagonist naloxone methiodide by radiant heat tail flick test; type: functional, organism-based; settings: dose 8.94 µmol/kg
Mus musculus [6] = assay: Analgesic activity in Kunming mouse at 2.68 umol/kg, sc pre-treated with 1 mg/kg, sc peripherally restricted opioid receptor antagonist naloxone methiodide by radiant heat tail flick test; type: functional, organism-based; settings: dose 2.68 µmol/kg
Mus musculus [7] = assay: Analgesic activity in icv dosed Kunming mouse assessed as time duration during which supraspinal antinociception lasted by radiant heat tail flick test; type: functional
Mus musculus [8] = assay: Analgesic activity in sc dosed Kunming mouse by radiant heat tail flick test; type: functional
Mus musculus [9] = assay: Analgesic activity in NPFF2 -/- C57BL/6 mouse at 0.89 umol/kg, sc by radiant heat tail flick test relative to wild type mouse; type: functional, organism-based; settings: dose 0.89 µmol/kg
[10] = target: T2, Neuropeptide FF receptor 1 (Homo sapiens, UniProt Q9GZQ6); assay: Agonist activity at NPFFR1 (unknown origin) expressed in HEK293-A cells assessed as inhibition of forskolin-stimulated cAMP accumulation incubated for 30 mins by competition PKA binding assay; type: functional, cell-based
Mus musculus [11] = assay: Analgesic activity in sc dosed Kunming mouse dosed once daily for 8 consecutive days by radiant heat tail flick test; type: functional, organism-based; settings: time 8.0 day
Mu-type opioid receptor = Mu-type opioid receptor (Homo sapiens, UniProt P35372); assay: Agonist activity at mu opioid receptor (unknown origin) expressed in HEK293-A cells assessed as inhibition of forskolin-stimulated cAMP accumulation incubated for 30 mins by competition PKA binding assay; type: functional, cell-based
[12] = target: T3, Neuropeptide FF receptor 2 (Homo sapiens, UniProt Q9Y5X5); assay: Agonist activity at NPFFR2 (unknown origin) expressed in HEK293-A cells assessed as inhibition of forskolin-stimulated cAMP accumulation incubated for 30 mins by competition PKA binding assay; type: functional, cell-based
Mus musculus [13] = assay: Analgesic activity in Kunming mouse at 2.68 umol/kg, sc pre-treated with 5 nmol, icv peripherally restricted opioid receptor antagonist naloxone methiodide by radiant heat tail flick test; type: functional, organism-based; settings: dose 2.68 µmol/kg
[14] = target: T3, Neuropeptide FF receptor 2; assay: Agonist activity at NPFFR2 (unknown origin) expressed in HEK293-A cells assessed as inhibition of forskolin-stimulated cAMP accumulation incubated for 30 mins by competition PKA binding assay relative to control; type: functional, cell-based; settings: filed as agonist
Mus musculus [15] = assay: Analgesic activity in icv dosed Kunming mouse by radiant heat tail flick test; type: functional
Mus musculus [16] = assay: Analgesic activity in NPFF2 -/- C57BL/6 mouse at 0.09 umol/kg, sc by radiant heat tail flick test relative to wild type mouse; type: functional, organism-based; settings: dose 0.09 µmol/kg
[17] = target: Kappa-type opioid receptor (Homo sapiens, UniProt P41145); assay: Agonist activity at kappa opioid receptor (unknown origin) expressed in HEK293-A cells assessed as inhibition of forskolin-stimulated cAMP accumulation incubated for 30 mins by competition PKA binding assay; type: functional, cell-based
Mus musculus [18] = assay: Analgesic activity in sc dosed Kunming mouse assessed as time duration during which antinociception lasted by radiant heat tail flick test; type: functional
[19] = target: T1, Delta-type opioid receptor; assay: Agonist activity at delta opioid receptor (unknown origin) expressed in HEK293-A cells assessed as inhibition of forskolin-stimulated cAMP accumulation incubated for 30 mins by competition PKA binding assay relative to control; type: functional, cell-based
[20] = Half life in 100% mouse plasma at 0.01 mM by RP-HPLC analysis; type: ADME, cell-free
[21] = target: T2, Neuropeptide FF receptor 1; assay: Agonist activity at NPFFR1 (unknown origin) expressed in HEK293-A cells assessed as inhibition of forskolin-stimulated cAMP accumulation incubated for 30 mins by competition PKA binding assay relative to control; type: functional, cell-based; settings: filed as agonist
Mus musculus [22] = assay: Analgesic activity in Kunming mouse assessed as increase in antinociceptive effect at 0.03 pmol, icv pre-treated with 10 nmol, icv NPFF receptor antagonist RF9 by radiant heat tail flick test; type: functional, organism-based
Mus musculus [23] = assay: Analgesic activity in sc dosed Kunming mouse pre-treated with 1 mg/kg, sc peripherally restricted opioid receptor antagonist naloxone methiodide by radiant heat tail flick test; type: functional, organism-based
Mus musculus [24] = assay: Analgesic activity in sc dosed Kunming mouse pre-treated with 1 mg/kg, sc opioid receptor antagonist naloxone by radiant heat tail flick test; type: functional, organism-based
Mus musculus [25] = assay: Analgesic activity in sc dosed Kunming mouse pre-treated with 5 nmol, icv peripherally restricted opioid receptor antagonist naloxone methiodide by radiant heat tail flick test; type: functional, organism-based
[26] = Induction of constipation in sc dosed Kunming mouse assessed as inhibition of gastrointestinal motility by charcoal based gastrointestinal motility test; type: organism-based; settings: in vivo
[27] = Toxicity in Kunming mouse assessed as activation of reward circuits at 0.09 umol/kg, sc by CPP test; type: organism-based; settings: in vivo, dose 0.09 µmol/kg
Mus musculus [28] = assay: Analgesic activity in Kunming mouse at 0.09 umol/kg, sc by radiant heat tail flick test; type: functional; settings: dose 0.09 µmol/kg
[29] = Half life in 15% mouse brain at 0.01 mM by RP-HPLC analysis; type: ADME, tissue-based
[30] = Toxicity in Kunming mouse assessed as increase in total travelled distance at 0.09 umol/kg, sc by open field assay; type: organism-based; settings: in vivo, dose 0.09 µmol/kg
[31] = Toxicity in Kunming mouse assessed as effect on motor coordination at 30 pmol, icv by rotarod test; settings: in vivo, icv_or_intrathecal
[32] = Safety index, ratio of ED50 for induction of constipation in sc dosed Kunming mouse to ED50 for analgesic activity in sc dosed Kunming mouse; type: organism-based; settings: in vivo, read-out: Ratio ED50
[33] = Toxicity in Kunming mouse assessed as increase in jumping counts after naloxone-injection at 0.09 umol/kg, sc by naloxone-precipitated withdrawal test; type: organism-based; settings: in vivo, dose 0.09 µmol/kg
Mus musculus [34] = assay: Analgesic activity in icv dosed Kunming mouse dosed once daily for 8 consecutive days by radiant heat tail flick test; type: functional, organism-based; settings: time 8.0 day
[35] = Toxicity in Kunming mouse assessed as effect on motor coordination at 0.09 umol/kg, sc by rotarod test; type: organism-based; settings: in vivo, dose 0.09 µmol/kg
Mus musculus [36] = assay: Analgesic activity in Kunming mouse at 30 pmol, icv by radiant heat tail flick test; type: functional

| SMILES | EC50 [4] [nM] | Time (Mus musculus [7]) [h] | ED50 (Mus musculus [8]) [µmol/kg] | EC50 [10] [nM] | Activity (Mus musculus [11]) | EC50 (Mu-type opioid receptor) [nM] | EC50 [12] [nM] | Emax [14] [%] | ED50 (Mus musculus [15]) [pmol] | EC50 ([17]; read-out: EC50) [nM] | Time (Mus musculus [18]) [h] | Emax ([19]; filed as agonist) [%] | half-life at 10 µM [20] [min] | Emax [21] [%] | Activity (Mus musculus [22]) | Activity (Mus musculus [23]) | Activity (Mus musculus [24]) | Activity (Mus musculus [25]) | half-life at 10 µM [29] [min] | Activity (Mus musculus [34]) | further results |
| --- | --- | --- | --- | --- | --- | --- | --- | --- | --- | --- | --- | --- | --- | --- | --- | --- | --- | --- | --- | --- | --- |
| N=C(N)NCCC[C@H](NC(=O)[C@H](CCC(N)=O)NC(=O)[C@@H]1CCCN1C(=O)[C@H](CS)NC(=O)[C@H](Cc1ccccc1)NC(=O)CNC(=O)[C@@H](CS)NC(=O)[C@@H](N)Cc1ccc(O)cc1)C(=O)N[C@@H](Cc1ccccc1)C(N)=O | 514 | 3 | 0.13 | 17.5 | Active | 221 | 532 | 46.6 | 0.6 | 581 | 3 | 46.1 | 27.9 | 78.5 | Active |  |  |  |  |  | Activity (Mus musculus [1]): inactive; Activity (Mus musculus [2]): inactive; Activity (Mus musculus [3]): inactive; Activity (Mus musculus [5]): Active; Activity (Mus musculus [6]): inactive; Activity (Mus musculus [9]): Active; Activity (Mus musculus [13]): Active; Activity (Mus musculus [16]): Active |
| N=C(N)NCCC[C@H](NC(=O)[C@H](CCC(N)=O)NC(=O)[C@@H]1CCCN1C(=O)[C@H](CS)NC(=O)[C@H](Cc1ccccc1)NC(=O)CNC(=O)[C@H](CS)NC(=O)[C@@H](N)Cc1ccc(O)cc1)C(=O)N[C@@H](Cc1ccccc1)C(N)=O | 218 |  | 0.24 | 24.9 | Active | 1550 | 752 | 62.9 | 150 | 184 | 1.5 |  | 29.6 | 79.7 | Active | inactive | inactive | Active |  |  | Emax [19]: 35.8% |
| N=C(N)NCCC[C@H](NC(=O)[C@H](CCC(N)=O)NC(=O)[C@@H]1CCCN1C(=O)[C@H]1CSSC[C@@H](NC(=O)[C@@H](N)Cc2ccc(O)cc2)C(=O)NCC(=O)N[C@@H](Cc2ccccc2)C(=O)N1)C(=O)N[C@@H](Cc1ccccc1)C(N)=O | 200 | 3 | 0.002 | 361 | Active | 196 | 192 | 74.6 | 0.001 | 2460 | 4 | 63.6 | 14.6 | 75.6 | Active |  |  |  | 255 | Active | Activity [26]: Dose-dependent effect; ED50 [26]: 0.07 µmol/kg; Activity [27]: Toxic; Activity (Mus musculus [7]): Dose-dependent effect; Activity (Mus musculus [8]): Dose-dependent effect; Activity (Mus musculus [28]): 80%; Activity [30]: Non-Toxic; Activity [31]: Non-Toxic; selectivity ratio [32]: 35; Activity [33]: Non-Toxic; Activity [35]: Non-Toxic; MPE (Mus musculus [36]): 90% |
| N=C(N)NCCC[C@H](NC(=O)[C@H](CCC(N)=O)NC(=O)[C@@H]1CCCN1C(=O)[C@@H](CS)NC(=O)[C@H](Cc1ccccc1)NC(=O)CNC(=O)[C@H](CS)NC(=O)[C@@H](N)Cc1ccc(O)cc1)C(=O)N[C@@H](Cc1ccccc1)C(N)=O | 199 | 3 | 0.1 | 216 | Active | 178 | 697 | 55.1 | 6.42 | 75.1 | 3 | 50.4 | 31.4 | 81.8 | Active | inactive | inactive | Active |  |  | EC50 ([17]; read-out: pEC50 (converted)): 74.1 nM |
| N=C(N)NCCC[C@H](NC(=O)[C@H](CCC(N)=O)NC(=O)[C@@H]1CCCN1C(=O)[C@@H]1CSSC[C@H](NC(=O)[C@@H](N)Cc2ccc(O)cc2)C(=O)NCC(=O)N[C@@H](Cc2ccccc2)C(=O)N1)C(=O)N[C@@H](Cc1ccccc1)C(N)=O | 162 |  | 0.18 | 32.5 | Active | 788 | 120 | 79.6 | 182 | 307 | 1.5 | 63.6 | 28.9 | 80.2 | Active |  |  |  | 58 | Active |  |
